Laboratory results as given in US11298422B2, “Treating tumors with TTFields and an aurora kinase inhibitor” (Novocure Limited, priority 2018, dated 2022).

Columns and labels:
Type in all cases: cell-based, human
U87-MG = assay: Flow cytometry analysis of DNA contents (ploidy), U87-MG; conditions: 72 h
Procedure: For cell cycle analysis, cells were removed with Trypsin immediately after 72 h treatment, washed twice with ice-cold PBS with 1% FBS and fixed with 70% ice-cold ethanol for 30 min. After fixation, cells were washed twice with ice-cold PBS with 1% FBS, pelleted and incubated in PBS containing 10 μg/ml RNase and 7.5 μg/ml7-AAD (Sigma-Aldrich) at 37° C. for 30 min. Cell cycle distribution was then quantified using the EC800 flow cytometer (Sony Biotechnology, Japan).
FIGS. 3A-D and 4A-E show U87-MG and U87-MG^shp53 FACS analysis of DNA contents following treatment with TTFields and AZD1152. More specifically, FIGS. 3A-D depict increased polyploidy in U87-MG cells following the combined treatment of TTFields (200 kHz, 1.6 V/cm RMS) at various AZD1152 concentrations; and FIGS. 4A-E depict increased polyploidy in U87-MG^shp53 cells following the combined treatment of TTFields (200 kHz, 1.6 V/cm RMS) at various AZD1152 concentrations.
Tables 1 and 2 depict, for U87-MG and U87-MG^shp53 respectively, numeric data corresponding to FIGS. 3 and 4. The columns in tables 1 and 2 represent the DNA copy number (e.g., 2n is the normal number of chromosomes (23 pairs=46), 4n is twice the number of chromosomes, etc.).

U87-MG^shp53 [1] = assay: Overall effect (surviving cells x colonies formed vs. control), U87-MG^shp53; conditions: for dosage required to achieve an overall effect of 38%: U87-MG^shp53 (FIG. 1D); for overall effect, Observed TTFields + AZD1152 / overall effect, AZD1152: 72 h; for overall effect, Expected: expected value for the combination; for overall effect, AZD1152: surviving cells x colonies vs. control
Procedure: (§1) The effects of the combined treatment of TTFields and the Aurora B kinase inhibitor AZD1152 was tested in 3 different glioma cell lines: U87-MG, U87-MG^shp53 and U-251. TTFields ([…], 200 kHz) were applied for 72 hours using the Inovitro system. AZD1152 was added to the media in concentrations of up to 100 nmol/L. Cell counts, cell cycle, and clonogenic potential were determined at the end of treatment. Formation of multinuclear cells was determined using microscopic images of cells stained with crystal violet.
(§2) The effects of the combined treatment of TTFields and AZD1152 was tested using the following human glioma cell lines: U87-MG (ATCC), U-251 (ECACC) and U87-mG^shp53 (provided by Dr. Achim Temme). All cells were grown in a humidified incubator supplied with 5% CO2. Cells were maintained in EMEM, supplemented with 10% FBS, 2 mmol/L glutamine, Pen-Strep solution (100 units/ml Penicillin and 0.1 mg/ml Streptomycin), 1 mmol/L sodium pyruvate and 1% NEAA. U87-MG^shp53 cells were maintained under selection with […] geneticin. AZD1152 was obtained from Sigma, Israel.
(§3) TTFields (1.6 V/cm RMS, 200 kHz) were applied for 72 hours using the Inovitro system. At the end of treatment, inhibition of tumor cell growth was analyzed quantitatively based on cell count. Clonogenic survival of U87-MG, U87-MG^shp53 and U-251 was tested by plating triplicates of 300 cells/dish in 6 wells dishes. After 2-3 weeks, cells were stained with crystal violet and the number of clones was quantified. Overall effect was calculated by multiplying the percentage of surviving cells at the end of treatment with the percentage of colonies formed vs. control.

U87-MG^shp53 [2] = assay: Cytotoxicity assay (cell count at end of treatment), U87-MG^shp53; conditions: for cytotoxic effect, Observed TTFields + AZD1152 / cytotoxic effect, AZD1152: 72 h; for cytotoxic effect, Observed TTFields + AZD1152: percentage of control; for cytotoxic effect, Expected: expected value for the combination; for cytotoxic effect, AZD1152: number of cells as percentage of control
Procedure: as §1, §2, §3

[3] = AZD1152 25 nM + TTFIELDS 200 kHz 1.6 V/cm RMS
[4] = AZD1152 25 nM, CONTROL (no TTFields)
[5] = AZD1152 50 nM + TTFIELDS 200 kHz 1.6 V/cm RMS
[6] = AZD1152 50 nM, CONTROL (no TTFields)
[7] = AZD1152 100 nM + TTFIELDS 200 kHz 1.6 V/cm RMS
[8] = AZD1152 100 nM, CONTROL (no TTFields)
[9] = U87-MG^shp53, AZD1152 25 nM + TTFields 200 kHz 1.6 V/cm RMS
[10] = U87-MG^shp53, AZD1152 25 nM + TTFields
[11] = U87-MG^shp53, AZD1152 25 nM alone
[12] = U87-MG^shp53, AZD1152 50 nM + TTFields 200 kHz 1.6 V/cm RMS
[13] = U87-MG^shp53, AZD1152 50 nM + TTFields
[14] = U87-MG^shp53, AZD1152 50 nM alone
[15] = U87-MG^shp53, AZD1152 100 nM + TTFields 200 kHz 1.6 V/cm RMS
[16] = U87-MG^shp53, AZD1152 100 nM + TTFields
[17] = U87-MG^shp53, AZD1152 100 nM alone

CCN(CCCOc1ccc2c(Nc3cc(CC(=O)Nc4cccc(F)c4)n[nH]3)ncnc2c1)CCOP(=O)(O)O [AZD1152, Barasertib]
DNA copy number 2n (U87-MG; [3]): 39%
DNA copy number 4n (U87-MG; [3]): 31%
DNA copy number 8n (U87-MG; [3]): 9%
DNA copy number 16n (U87-MG; [3]): 2%
DNA copy number 2n (U87-MG; [4]): 55%
DNA copy number 4n (U87-MG; [4]): 25%
DNA copy number 8n (U87-MG; [4]): 4%
DNA copy number 16n (U87-MG; [4]): 1%
DNA copy number 2n (U87-MG; [5]): 28%
DNA copy number 4n (U87-MG; [5]): 36%
DNA copy number 8n (U87-MG; [5]): 16%
DNA copy number 16n (U87-MG; [5]): 2%
DNA copy number 2n (U87-MG; [6]): 45%
DNA copy number 4n (U87-MG; [6]): 26%
DNA copy number 8n (U87-MG; [6]): 8%
DNA copy number 16n (U87-MG; [6]): 2%
DNA copy number 2n (U87-MG; [7]): 11%
DNA copy number 4n (U87-MG; [7]): 40%
DNA copy number 8n (U87-MG; [7]): 25%
DNA copy number 16n (U87-MG; [7]): 4%
DNA copy number 2n (U87-MG; [8]): 27%
DNA copy number 4n (U87-MG; [8]): 33%
DNA copy number 8n (U87-MG; [8]): 22%
DNA copy number 16n (U87-MG; [8]): 3%
dosage required to achieve an overall effect of 38% (U87-MG^shp53 [1]; combined with TTFields): 25 nM
dosage required to achieve an overall effect of 38% (U87-MG^shp53 [1]; in the absence of TTFields): 70 nM
overall effect, Observed TTFields + AZD1152 (U87-MG^shp53 [1]; [9]): 39.0%
overall effect, Expected (U87-MG^shp53 [1]; [10]): 51.0%
overall effect, AZD1152 (U87-MG^shp53 [1]; [11]): 79%
overall effect, Observed TTFields + AZD1152 (U87-MG^shp53 [1]; [12]): 13.0%
overall effect, Expected (U87-MG^shp53 [1]; [13]): 33.9%
overall effect, AZD1152 (U87-MG^shp53 [1]; [14]): 52.5%
overall effect, Observed TTFields + AZD1152 (U87-MG^shp53 [1]; [15]): 2.5%
overall effect, Expected (U87-MG^shp53 [1]; [16]): 7.1%
overall effect, AZD1152 (U87-MG^shp53 [1]; [17]): 11%
reduction of dosage required for a given level of overall effect when combined with TTFields (U87-MG^shp53 [1]; with respect to the dosage giving the same overall effect in the absence of an alternating electric field, 'can often be'): at least 50%
IC50 (U87-MG^shp53 [2]; Homo sapiens, U87-MG^shp53, AZD1152 alone, 72 hours): ~0.05 µM
cytotoxic effect, Observed TTFields + AZD1152 (U87-MG^shp53 [2]; [9]): 22.5%
cytotoxic effect, Expected (U87-MG^shp53 [2]; [10]): 42.2%
cytotoxic effect, AZD1152 (U87-MG^shp53 [2]; [11]): 71%
cytotoxic effect, Observed TTFields + AZD1152 (U87-MG^shp53 [2]; [12]): 10.5%
cytotoxic effect, Expected (U87-MG^shp53 [2]; [13]): 27.7%
cytotoxic effect, AZD1152 (U87-MG^shp53 [2]; [14]): 46.5%
cytotoxic effect, Observed TTFields + AZD1152 (U87-MG^shp53 [2]; [15]): 4.5%
cytotoxic effect, Expected (U87-MG^shp53 [2]; [16]): 8.9%
cytotoxic effect, AZD1152 (U87-MG^shp53 [2]; [17]): 15%
cytotoxic effect of combined treatment of TTFields and AZD1152 (U87-MG^shp53 [2]; U87-MG^shp53, 2-way ANOVA, p<0.001): significant enhancement of the cytotoxic effect
